Several values for one entry are separate records, joined by “and”; a condition that tells them apart may be missing. Equal values may be shown once. Marks after values point to notes of the source that are not given here.
Experiments:
Assay in all cases: metsulfuron whole plant greenhouse test (Example 5)
Assay type in all cases: in vivo
[1] = test system: sunflower line B770, WT; settings: 14 DAT
Procedure: (§1) Seeds were sown in Petri dishes and, after germination, plantlets were transplanted into 10 cm pots containing potting media consisting of equal parts of vermiculite, soil, and sand. Plants were grown in the greenhouse under natural light conditions supplemented with 400 W sodium halide lamps to provide a 16 hr daylength. Day/night temperatures were 25 and 20° C., respectively. At the V2-V4 stage (Schneiter & Miller, 1981) 20 plants of each genotype were randomly assigned to each treatment consisting of three metsulfuron methyl doses (0 or no treatment, 5 g ai/ha or a 1× rate, and 10 g ai/ha or a 2× rate). A zero-time biomass determination was also conducted. The experiment was arranged as a randomized complete block design (RCBD) with a full factorial arrangement of treatments and 20 replications (sunflower line×treatment).
(§2) For the zero-time dried weight determination, ten plants of each genotype were cut at the cotyledonal node on the day of herbicide application and dried at 60° C. for 48 hr. The rest of the plants were maintained for 14 days after herbicide treatment (DAT) and their height, Phytotoxicity Index (PI) and above ground dry biomass were recorded. Height was determined as the distance between the cotyledonal node and the apex of each plant. The above ground biomass data for each line was converted to biomass accumulation after application by subtracting the appropriate average zero-time biomass from each sample. Height and dry biomass were converted to a percentage of the untreated control for each line to allow direct comparisons between groups.
(§3) The data was subjected to an ANOVA and the means were compared by an LSD test.

[2] = test system: sunflower line L4, A122T/A122T; settings: 14 DAT; for Dry Matter accumulation (DMA) / Mean Height Reduction (PH): percentage of untreated control
Procedure: as §1, §2, §3

[3] = test system: sunflower cmsGM40xBTSu-R1, A122T/P197L; settings: 14 DAT; for Dry Matter accumulation (DMA) / Mean Height Reduction (PH): percentage of untreated control
Procedure: as §1, §2, §3

[4] = test system: sunflower line BTSu-R1, P197L/P197L; settings: 14 DAT, percentage of untreated control
Procedure: as §1, §2, §3

[5] = test system: sunflower line GM40, A122T/A122T; settings: 14 DAT; for Dry Matter accumulation (DMA) / Mean Height Reduction (PH): percentage of untreated control
Procedure: as §1, §2, §3

[6] = test system: sunflower cmsGM40xL4, A122T/A122T; settings: 14 DAT; for Dry Matter accumulation (DMA) / Mean Height Reduction (PH): percentage of untreated control
Procedure: as §1, §2, §3

[7] = test system: sunflower line GM1606, A122T/A122T; settings: 14 DAT; for Dry Matter accumulation (DMA) / Mean Height Reduction (PH): percentage of untreated control
Procedure: as §1, §2, §3

[8] = 2X (10 g ai./ha), percentage of untreated control

COC(=O)c1ccccc1S(=O)(=O)NC(=O)Nc1nc(C)nc(OC)n1 [metsulfuron]
Phytotoxicity Index (PI) (0-9) ([1]; 1X (5g ai./ha)): 8.50 ^bc | Dry Matter accumulation (DMA) ([1]; 1X (5g ai./ha), percentage of untreated control): 28.43 ^b % | Phytotoxicity Index (PI) (0-9) ([1]; 2X (10 g ai./ha)): 9.00 ^d | Dry Matter accumulation (DMA) [1, 8]: 28.77 ^b % | Mean Height Reduction (PH) [1, 8]: 18.20 ^a % | Phytotoxicity Index (PI) (0-9) ([2]; 1X (5g ai./ha)): 8.25 ^b | Dry Matter accumulation (DMA) ([2]; 1X (5g ai./ha)): 25.40 ^ab % | Mean Height Reduction (PH) ([2]; 1X (5g ai./ha)): 19.47 ^a % | Phytotoxicity Index (PI) (0-9) ([2]; 2X (10 g ai./ha)): 8.5 ^c | Dry Matter accumulation (DMA) ([2]; 2X (10 g ai./ha)): 18.80 ^a % | Mean Height Reduction (PH) ([2]; 2X (10 g ai./ha)): 18.73 ^a % | Phytotoxicity Index (PI) (0-9) ([3]; 1X (5g ai./ha)): 0.00 ^a | Dry Matter accumulation (DMA) ([3]; 1X (5g ai./ha)): 74.4% and 74.36 ^c % | Mean Height Reduction (PH) ([3]; 1X (5g ai./ha)): 77.04 ^b % | Dry Matter accumulation (DMA) ([3]; 2X (10 g ai./ha)): 72.66 ^c % | Mean Height Reduction (PH) ([3]; 2X (10 g ai./ha)): 62% and 61.99 ^b % | Dry Matter accumulation (DMA) ([4]; 1X (5g ai./ha)): 88% and 88.1% and 88.10 ^d % | Plant height, % of untreated control ([4]; 1X (5g ai./ha)): 79.01 ^b % | Dry Matter accumulation (DMA) ([4]; 2X (10 g ai./ha)): 77% and 76.69 ^c % | Plant height, % of untreated control ([4]; 2X (10 g ai./ha)): 80.85 ^c % | Phytotoxicity Index (PI) (0-9) ([5]; 1X (5g ai./ha)): 9.00 ^d | Dry Matter accumulation (DMA) ([5]; 1X (5g ai./ha)): 25.73 ^ab % | Mean Height Reduction (PH) ([5]; 1X (5g ai./ha)): 21.39 ^a % | Phytotoxicity Index (PI) (0-9) ([5]; 2X (10 g ai./ha)): 9.00 ^d | Dry Matter accumulation (DMA) ([5]; 2X (10 g ai./ha)): 20.69 ^a % | Mean Height Reduction (PH) ([5]; 2X (10 g ai./ha)): 21.17 ^a % | Phytotoxicity Index (PI) (0-9) ([6]; 1X (5g ai./ha)): 8.67 ^d | Dry Matter accumulation (DMA) ([6]; 1X (5g ai./ha)): 19.90 ^a % | Mean Height Reduction (PH) ([6]; 1X (5g ai./ha)): 22.45 ^a % | Phytotoxicity Index (PI) (0-9) ([6]; 2X (10 g ai./ha)): 8.82 ^cd | Dry Matter accumulation (DMA) ([6]; 2X (10 g ai./ha)): 18.23 ^a % | Mean Height Reduction (PH) ([6]; 2X (10 g ai./ha)): 20.56 ^a % | Phytotoxicity Index (PI) (0-9) ([7]; 1X (5g ai./ha)): 8.70 ^d | Dry Matter accumulation (DMA) ([7]; 1X (5g ai./ha)): 30.39 ^b % | Mean Height Reduction (PH) ([7]; 1X (5g ai./ha)): 21.55 ^a % | Phytotoxicity Index (PI) (0-9) ([7]; 2X (10 g ai./ha)): 9.00 ^d | Dry Matter accumulation (DMA) ([7]; 2X (10 g ai./ha)): 20.45 ^a % | Mean Height Reduction (PH) ([7]; 2X (10 g ai./ha)): 21.70 ^a %
